This is an account of results in ChEMBL document CHEMBL4823307, “Discovery of benzimidazole derivatives as potent and selective aldehyde dehydrogenase 1A1 (ALDH1A1) inhibitors with glucose consumption improving activity” (Bioorg Med Chem, 2021).

Data set [1] deals with T1, Aldehyde dehydrogenase 1A1 (Homo sapiens) (UniProt P00352).
T1 sequence (whole entry): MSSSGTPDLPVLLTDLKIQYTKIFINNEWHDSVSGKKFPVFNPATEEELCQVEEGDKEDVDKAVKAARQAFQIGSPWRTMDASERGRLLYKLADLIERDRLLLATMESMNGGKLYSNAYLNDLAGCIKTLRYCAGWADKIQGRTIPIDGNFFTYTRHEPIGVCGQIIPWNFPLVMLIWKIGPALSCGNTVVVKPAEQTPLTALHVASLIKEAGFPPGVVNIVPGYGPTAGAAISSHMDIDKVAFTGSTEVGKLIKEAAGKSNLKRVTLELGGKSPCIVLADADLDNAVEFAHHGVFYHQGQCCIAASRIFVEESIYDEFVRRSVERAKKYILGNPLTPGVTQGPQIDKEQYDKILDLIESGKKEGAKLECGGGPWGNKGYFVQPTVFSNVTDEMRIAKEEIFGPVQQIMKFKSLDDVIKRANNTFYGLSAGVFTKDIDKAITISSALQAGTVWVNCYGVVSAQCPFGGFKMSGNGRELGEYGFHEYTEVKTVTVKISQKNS
Nature of the data set: Inhibition of human ALDH1A1 assessed as NADH formation using propionaldehyde as substrate at 10 uM by spectrophotometry.

Data set [2] is described as follows: Cytotoxicity against human HepG2 cells assessed as cell viability at 0.1 uM incubated for 24 hrs by MTT assay relative to control. The class given is cell-based. Conditions: read-out: Activity. Background: Formazan colour is commonly taken as a measure of viable cells.
A short description of data set [3]: Cytotoxicity against human HepG2 cells assessed as cell viability at 1 uM incubated for 24 hrs by MTT assay relative to control. Format: cell-based. The note with it: read-out: Activity.
Data set [4] addresses T2, Retinaldehyde dehydrogenase 3 (Homo sapiens, UniProt P47895).
T2 sequence (P47895 whole entry): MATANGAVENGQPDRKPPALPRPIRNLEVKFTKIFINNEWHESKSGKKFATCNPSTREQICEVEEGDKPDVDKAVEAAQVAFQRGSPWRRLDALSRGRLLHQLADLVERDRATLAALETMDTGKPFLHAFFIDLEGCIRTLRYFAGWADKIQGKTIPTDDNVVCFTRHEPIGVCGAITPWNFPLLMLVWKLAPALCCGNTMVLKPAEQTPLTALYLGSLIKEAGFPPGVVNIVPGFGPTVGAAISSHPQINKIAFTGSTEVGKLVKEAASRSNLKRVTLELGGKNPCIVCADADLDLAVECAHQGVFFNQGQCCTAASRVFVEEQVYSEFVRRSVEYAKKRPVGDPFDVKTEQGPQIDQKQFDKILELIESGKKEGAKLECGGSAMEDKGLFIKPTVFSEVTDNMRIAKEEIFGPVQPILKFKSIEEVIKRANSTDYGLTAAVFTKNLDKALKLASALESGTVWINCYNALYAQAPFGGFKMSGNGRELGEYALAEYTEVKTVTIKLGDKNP
Nature of the data set: Inhibition of human ALDH1A3 assessed as NADH formation using propionaldehyde as substrate by spectrophotometry.

Another data set deals with T3, Retinal dehydrogenase 2 (Homo sapiens, UniProt O94788).
T3 sequence (O94788 whole entry): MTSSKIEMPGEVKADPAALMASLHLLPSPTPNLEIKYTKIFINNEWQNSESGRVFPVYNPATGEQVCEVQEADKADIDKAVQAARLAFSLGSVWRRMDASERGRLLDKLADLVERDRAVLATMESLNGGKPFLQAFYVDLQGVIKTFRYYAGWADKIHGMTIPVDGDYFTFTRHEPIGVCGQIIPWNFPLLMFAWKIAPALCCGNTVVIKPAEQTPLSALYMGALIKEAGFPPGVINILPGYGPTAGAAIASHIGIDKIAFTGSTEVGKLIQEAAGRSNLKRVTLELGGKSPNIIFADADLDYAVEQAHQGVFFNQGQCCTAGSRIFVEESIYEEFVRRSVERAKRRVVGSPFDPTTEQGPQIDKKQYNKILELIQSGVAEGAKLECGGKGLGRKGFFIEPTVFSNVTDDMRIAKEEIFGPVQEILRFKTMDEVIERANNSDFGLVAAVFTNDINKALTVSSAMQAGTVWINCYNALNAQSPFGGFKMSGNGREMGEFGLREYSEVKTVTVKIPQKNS
Put plainly: Inhibition of human ALDH1A2 assessed as NADH formation using propionaldehyde as substrate by spectrophotometry.

Data set [5] has as its system HepG2. Put plainly: Increase in glucose consumption in human HepG2 cells at 10 uM by glucose oxidase assay. The class given is functional.
The target of data set [6] is T4, Aldehyde dehydrogenase 1A1 (Homo sapiens, UniProt P00352).
T4 sequence (P00352 whole entry): T1 sequence (whole entry)
Nature of the data set: Inhibition of human ALDH1A1 assessed as NADH formation using propionaldehyde as substrate by spectrophotometry.

The nature of data set [7]: Cytotoxicity against human HepG2 cells assessed as cell viability at 10 uM incubated for 24 hrs by MTT assay relative to control. Format: cell-based. Conditions: read-out: Activity.
Data set [8] addresses T5, Aldehyde dehydrogenase, mitochondrial (Homo sapiens, UniProt P05091).
T5 sequence (P05091 whole entry): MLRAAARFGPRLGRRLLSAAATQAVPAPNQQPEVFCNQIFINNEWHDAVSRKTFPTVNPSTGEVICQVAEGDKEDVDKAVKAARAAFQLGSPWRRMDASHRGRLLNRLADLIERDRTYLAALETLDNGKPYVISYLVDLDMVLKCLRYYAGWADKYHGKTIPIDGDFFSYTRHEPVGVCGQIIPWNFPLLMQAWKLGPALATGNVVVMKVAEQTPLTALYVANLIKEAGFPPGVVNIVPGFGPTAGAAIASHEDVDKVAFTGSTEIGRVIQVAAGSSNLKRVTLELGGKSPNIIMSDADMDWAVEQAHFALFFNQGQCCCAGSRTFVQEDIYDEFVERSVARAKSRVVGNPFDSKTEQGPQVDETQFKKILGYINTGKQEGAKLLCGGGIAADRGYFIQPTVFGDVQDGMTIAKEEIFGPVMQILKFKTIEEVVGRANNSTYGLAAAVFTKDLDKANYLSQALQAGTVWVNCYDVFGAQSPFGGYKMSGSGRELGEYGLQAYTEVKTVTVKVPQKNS
Put plainly: Inhibition of human ALDH2 assessed as NADH formation using propionaldehyde as substrate by spectrophotometry.

Data set [9] deals with HepG2. Put plainly: Cytotoxicity against human HepG2 cells assessed as morphological changes at 0.1 to 10 uM incubated for 24 hrs. The note with it: hepg2, 24 h, dose 0.1-10 µM. Format: cell-based.

Active and inactive are the calls of the source. The rule behind the calls is not given here.

Take `Cc1cccc(Cn2c(CN3CCN(C(=O)c4ccc(C#N)cc4)CC3)nc3ccccc32)c1`: in data set [1], the inhibition worked out at 20.8%. The same measure, in the same setting: the value for `Cc1cccc(Cn2c(CN3CCN(C(=O)c4ccccc4)CC3)nc3ccccc32)c1` was 60.9%; that for `Cc1cccc(Cn2c(CN3CCN(C(=O)c4ccc(C(C)C)cc4)CC3)nc3ccccc32)c1` was 67.6%; that for `CC(C)CCn1c(OC2CCN(C(=O)c3ccco3)CC2)nc2ccccc21` was 30.8%. The same measure, in the same setting: the value for `Cc1cccc(Cn2c(CN3CCN(C(=O)c4ccc(F)cc4)CC3)nc3ccccc32)c1` was 27.1%; that for `CC(=O)N1CCN(Cc2nc3ccccc3n2Cc2cccc(C)c2)CC1` was 70.3%. On the same count and under the same terms, the value for `O=C(C1CC1)N1CCN(Cc2nc3ccccc3n2Cc2ccccc2F)CC1` was 40.7%; that for `O=C(C1CC1)N1CCN(Cc2nc3ccccc3n2Cc2ccccc2C(F)(F)F)CC1` was 56.3%; that for `Cc1cccc(Cn2c(CN3CCN(C(=O)c4ccc([N+](=O)[O-])cc4)CC3)nc3ccccc32)c1` was 24.3%. In the case of `CCc1ccc(C(=O)N2CCN(Cc3nc4ccccc4n3Cc3cccc(C)c3)CC2)cc1`, in data set [1], the inhibition amounted to 67%.

For `Cc1ccc(Cn2c(CN3CCN(C(=O)C4CC4)CC3)nc3ccccc32)cc1`, the inhibition in data set [1] came to 51.5%. `Cc1cccc(Cn2c(OC3CCN(C(=O)c4ccco4)CC3)nc3ccccc32)c1`: the inhibition in [1] is 68.3%. Take `O=C(C1CC1)N1CCN(Cc2nc3ccccc3n2CC2CC2)CC1`: the inhibition in data set [1] is 21.2%.

Regarding `Cc1cccc(Cn2c(CN3CCN(C(=O)c4ccc(Cl)cc4)CC3)nc3ccccc32)c1`, in data set [1], the inhibition was 23.2%.

As to `CCC(=O)N1CCN(Cc2nc3ccccc3n2Cc2cccc(C)c2)CC1`, in data set [2], the viability at 24 h, 0.1 µM was determined as 89.7%. Further, the viability at 24 h, 1 µM in data set [3] was found to be 91.8%. Further, the IC50 in [4] came to 1.68 µM; at Retinal dehydrogenase 2, 2.09 µM; in [6], 0.626 µM; in [8], 3.23 µM. Also, the Activity in the data set with HepG2 [5] is 15%; with HepG2 [9], “Non-Toxic”. Moreover, the inhibition in data set [1] came to 85.1%. Also, the viability at 24 h, 10 µM in data set [7] turned out to be 85.4%. For `Cc1cccc(Cn2c(CN3CCN(C(=O)C4CCCC4)CC3)nc3ccccc32)c1`, the inhibition in data set [1] came to 67.5%.

In the case of `CCCCn1c(CN2CCN(C(=O)C3CC3)CC2)nc2ccccc21`, the inhibition in data set [1] was determined as 18.2%. On the same count and under the same terms, the same measure for `CCn1c(CN2CCN(C(=O)C3CC3)CC2)nc2ccccc21`: 20.8%; for `COc1ccc(C(=O)N2CCN(Cc3nc4ccccc4n3Cc3cccc(C)c3)CC2)cc1`: 55.5%; for `Cc1cccc(Cn2c(CN3CCN(C(=O)c4ccncc4)CC3)nc3ccccc32)c1`: 20.6%.

On to `Cc1cccc(Cn2c(CN3CCN(C(=O)c4cccs4)CC3)nc3ccccc32)c1`, for which the inhibition in data set [1] amounted to 60.8%.

Consider `Cc1cccc(Cn2c(NC3CCN(C(=O)c4ccco4)CC3)nc3ccccc32)c1`, for which the inhibition in data set [1] is 27.9%. Same read-out and setting: the same measure for `O=C(C1CC1)N1CCN(Cc2nc3ccccc3n2CC2CCCC2)CC1`: 44.5%; for `CCCC(=O)N1CCN(Cc2nc3ccccc3n2Cc2cccc(C)c2)CC1`: 79%. As to `Cc1ccccc1Cn1c(CN2CCN(C(=O)C3CC3)CC2)nc2ccccc21`, the inhibition in [1] worked out at 29.1%. The same measure, in the same setting: the value for `CC(C)CCn1c(CN2CCN(C(=O)C3CC3)CC2)nc2ccccc21` was 70%; that for `Cc1ccc(C(=O)N2CCN(Cc3nc4ccccc4n3Cc3cccc(C)c3)CC2)cc1` was 64.9%. Take `Cc1cccc(Cn2c(CN3CCN(C(=O)c4ccco4)CC3)nc3ccccc32)c1`: the inhibition in data set [1] was found to be 73.2%. Same read-out and setting: the same measure for `Cc1cccc(Cn2c(CN3CCN(C(=O)c4cccnc4)CC3)nc3ccccc32)c1`: 24.5%; for `COc1cccc(Cn2c(CN3CCN(C(=O)C4CC4)CC3)nc3ccccc32)c1`: 44.4%. The same measure, in the same setting: the value for `O=C(C1CC1)N1CCN(Cc2nc3ccccc3n2Cc2ccc(Cl)cc2)CC1` was 56.6%; that for `CC(C)CCn1c(NC2CCN(C(=O)C3CC3)CC2)nc2ccccc21` was 10.8%.

Consider `CC(C)Cn1c(CN2CCN(C(=O)C3CC3)CC2)nc2ccccc21`, for which the inhibition in data set [1] worked out at 13.1%. Still for that read-out and setting: the same measure for `Cc1cccc(Cn2c(OC3CCN(C(=O)C4CC4)CC3)nc3ccccc32)c1`: 80.6%; for `O=C(C1CC1)N1CCN(Cc2nc3ccccc3n2Cc2cccc(F)c2)CC1`: 27.1%. For the molecule `O=C(C1CC1)N1CCN(Cc2nc3ccccc3n2Cc2ccc(C(F)(F)F)cc2)CC1`, the inhibition in [1] was found to be 37%.

For `Cc1cccc(Cn2c(CN3CCN(C(=O)CC(C)C)CC3)nc3ccccc32)c1`, the inhibition in data set [1] stood at 71.4%.

For the molecule `O=C(C1CC1)N1CCN(Cc2nc3ccccc3n2Cc2ccc(F)cc2)CC1`, in data set [1], the inhibition was 32.7%. The same measure, in the same setting: the same measure for `Cc1cccc(Cn2c(CN3CCN(C(=O)c4ccc(Br)cc4)CC3)nc3ccccc32)c1`: 25.8%; for `Cc1cccc(Cn2c(CN3CCN(C(=O)C4CCC4)CC3)nc3ccccc32)c1`: 69.1%; for `O=C(C1CC1)N1CCN(Cc2nc3ccccc3n2Cc2ccccc2)CC1`: 23.9%. On the same count and under the same terms, the same measure for `Cc1cccc(Cn2c(CN3CCN(C(=O)c4ccc(C(F)(F)F)cc4)CC3)nc3ccccc32)c1`: 22.9%. For the molecule `CC(C)CCn1c(CN2CCN(C(=O)c3ccco3)CC2)nc2c1c(=O)n(C)c(=O)n2C`, in [2], the viability at 24 h, 0.1 µM was 100%. The viability at 24 h, 1 µM in data set [3] worked out at 100%. For the same molecule, in the data set on HepG2 [5], the outcome was inactive. Moreover, the viability at 24 h, 10 µM in data set [7] came to 98.2%.

As for `Cc1cccc(Cn2c(CN3CCN(C(=O)C4CCCCC4)CC3)nc3ccccc32)c1`, in data set [1], the inhibition came out at 31.9%.

With `CC(C)CCn1c(OC2CCN(C(=O)C3CC3)CC2)nc2ccccc21`, in data set [1], the inhibition came to 56.4%. Same read-out and setting: the value for `CC(C)CCn1c(CN2CCN(C(=O)c3ccco3)CC2)nc2ccccc21` was 42.1%; that for `Cc1cccc(Cn2c(NC3CCN(C(=O)C4CC4)CC3)nc3ccccc32)c1` was 49.1%.

For orientation: inhibition means the relative decrease from the control value, in per cent. As a reminder, the IC50 is the concentration at which inhibition is half-maximal.
